According to patent publication US20170224688A1, “Methods of Using BTK Inhibitors to Treat Dermatoses” (Acerta Pharma B.V., priority 2016, published 2017):
Blank lines part the entries; values can stand above or below the compound they belong to.

How the values were obtained:
[1] = tested on: signals through the B cell receptor; assay: In vitro potency in whole blood: CD69 on CD19+ B cells after anti-human IgD; assay type: cell-based; conditions: blood of four healthy donors, 2 h with compound, anti-human IgD 10 μg/mL 18 h, flow cytometry, read-out: EC50, inhibition of CD69 on gated CD19+ B cells in whole blood
Procedure: Blood from four healthy donors was incubated for 2 hours with the compounds shown over a concentration range, and then stimulated with anti-human IgD [10 μg/mL] for 18 hours. The mean fluorescent intensity (MFI) of CD69 (and CD86, data not shown) on gated CD19+ B cells was measured by flow cytometry.

psoriasis [2] = conditions: patients treated for malignancies; cited from earlier work
psoriasis [3] = assay: Clinical observation of psoriasis in CLL patients on study drug; assay type: in vivo, human
Text: (§1) Clinical studies have shown that targeting the BCR signaling pathway by inhibiting BTK produces significant clinical benefit in patients with various types of leukemias and lymphomas.
The secondary objective of the clinical study is to evaluate tumor responses in patients treated with Formula (II).
The study scheme is a sequential cohort escalation. Each cohort consists of six subjects. The sample size of the study is 24 to 36 subjects, depending on dose escalation into subsequent cohorts. […] The dose level for Cohort 6 will be determined based on the safety and efficacy of Cohorts 1 to 5, and will not exceed 900 mg/day. Escalation will end with either the MTD cohort or three levels above full BTK occupancy, whichever is observed first. An additional arm of the study will explore 100 mg BID dosing.
The color of the capsules is Swedish orange. The route of administration is oral (per os, or PO). The dose regimen is once daily or twice daily, as defined by the cohort, on an empty stomach (defined as no food 2 hours before and 30 minutes after dosing).
(§2) Subject 1 in the clinical study of Example 12 is a CLL patient with a history of psoriatic skin disease. Subject 1 had psoriasis, without involvement of joints, and with diffuse plaques on their trunk and extremities. Their psoriasis was severe, with ˜30% body surface area (BSA) affected (>10% BSA is considered severe disease). They were treated over time with several systemic therapies including etanercept, adalimumab, and a 2010 clinical study of an experimental agent.
When treatment with Formula (2) was initiated, Subject 1's skin symptoms started to improve rapidly. […] By Cycle 10 (10 months on Formula (2)), their skin was clear. […] The only remainder was some scaling in the same areas that were once affected by psoriasis lesions.
Subject 2 was enrolled in a clinical study similar to that described above, and also experienced resolution of moderate-to-severe plaque psoriasis (a “florid” case) while on treatment with Formula (2). The subject's disease history included extensive body surface area involvement, mainly on the back and thighs, for most of their adult life.

[4] = tested on: BCR activation markers CD69 and CD86; assay: In vivo potency: BCR activation markers after oral gavage; conditions: mice gavaged, sacrificed 3 h post-dose, BCR stimulated with IgM, flow cytometry (FIG. 1)
Procedure: Mice were gavaged at increasing drug concentration and sacrificed at one time point (3 h post-dose). BCR is stimulated with IgM and the expression of activation markers CD69 and CD86 are monitored by flow cytometry to determine EC50's.
CD86 and CD69 are cell surface proteins that are BCR activation markers. […] BCR was stimulated with IgM and the expression of activation marker CD69 and CD86 are monitored by flow cytometry and to determine EC50 values.

CYP3A4 = CYP3A4 (Homo sapiens, UniProt P08684); assay: Loss of parent drug as catalyzed by CYPs; assay type: in vitro ADME; conditions: in vitro
[5] = Oral bioavailability (preclinical characteristics); conditions: in vivo
Text: as §1

CYP enzymes = assay: Nonclinical CYP interaction studies; assay type: in vitro ADME
[6] = Study of respiratory function (GLP safety pharmacology); conditions: rats, doses through 300 mg/kg (highest dose level)
[7] = Glutathione binding and depletion in vitro; assay type: in vitro ADME
EGFR = EGFR (Homo sapiens, UniProt P00533); assay: EGF-induced EGFR phosphorylation in A431 cells (phosphoflow cytometry); conditions: at 10 μM, A431 human epidermoid cancer cell line
[8] = Preliminary evaluation of metabolism in plasma, bile, and urine; assay type: in vivo; conditions: rats, dogs, monkeys; preliminary evaluations
hepatocytes = assay: In vitro metabolism in hepatocytes with 14C-labeled drug; assay type: in vitro ADME, mouse, rat, dog, rabbit, monkey, and human
hematologic malignancies = conditions: cited from earlier work
psoriasis [9] = assay: Treatment history of Subject 1's psoriasis; assay type: in vivo, human; conditions: Subject 1, before enrolling in the clinical study
Procedure: as §2

Chain of CYP3A4 (P08684 whole entry, species assumed): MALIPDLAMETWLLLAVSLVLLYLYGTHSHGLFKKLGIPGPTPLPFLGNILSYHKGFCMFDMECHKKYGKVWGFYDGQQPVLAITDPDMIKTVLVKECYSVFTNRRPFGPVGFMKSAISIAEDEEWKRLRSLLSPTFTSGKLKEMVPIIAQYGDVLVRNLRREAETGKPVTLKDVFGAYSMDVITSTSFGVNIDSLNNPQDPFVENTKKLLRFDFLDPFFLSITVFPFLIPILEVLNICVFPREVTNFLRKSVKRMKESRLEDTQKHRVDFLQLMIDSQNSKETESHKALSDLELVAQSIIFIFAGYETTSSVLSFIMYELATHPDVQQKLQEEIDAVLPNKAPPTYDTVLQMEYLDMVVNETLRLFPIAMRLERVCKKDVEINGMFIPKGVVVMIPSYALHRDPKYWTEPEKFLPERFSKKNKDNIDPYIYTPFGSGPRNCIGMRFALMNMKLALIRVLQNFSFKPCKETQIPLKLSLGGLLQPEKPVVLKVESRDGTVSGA
Chain of EGFR (P00533 25-1210): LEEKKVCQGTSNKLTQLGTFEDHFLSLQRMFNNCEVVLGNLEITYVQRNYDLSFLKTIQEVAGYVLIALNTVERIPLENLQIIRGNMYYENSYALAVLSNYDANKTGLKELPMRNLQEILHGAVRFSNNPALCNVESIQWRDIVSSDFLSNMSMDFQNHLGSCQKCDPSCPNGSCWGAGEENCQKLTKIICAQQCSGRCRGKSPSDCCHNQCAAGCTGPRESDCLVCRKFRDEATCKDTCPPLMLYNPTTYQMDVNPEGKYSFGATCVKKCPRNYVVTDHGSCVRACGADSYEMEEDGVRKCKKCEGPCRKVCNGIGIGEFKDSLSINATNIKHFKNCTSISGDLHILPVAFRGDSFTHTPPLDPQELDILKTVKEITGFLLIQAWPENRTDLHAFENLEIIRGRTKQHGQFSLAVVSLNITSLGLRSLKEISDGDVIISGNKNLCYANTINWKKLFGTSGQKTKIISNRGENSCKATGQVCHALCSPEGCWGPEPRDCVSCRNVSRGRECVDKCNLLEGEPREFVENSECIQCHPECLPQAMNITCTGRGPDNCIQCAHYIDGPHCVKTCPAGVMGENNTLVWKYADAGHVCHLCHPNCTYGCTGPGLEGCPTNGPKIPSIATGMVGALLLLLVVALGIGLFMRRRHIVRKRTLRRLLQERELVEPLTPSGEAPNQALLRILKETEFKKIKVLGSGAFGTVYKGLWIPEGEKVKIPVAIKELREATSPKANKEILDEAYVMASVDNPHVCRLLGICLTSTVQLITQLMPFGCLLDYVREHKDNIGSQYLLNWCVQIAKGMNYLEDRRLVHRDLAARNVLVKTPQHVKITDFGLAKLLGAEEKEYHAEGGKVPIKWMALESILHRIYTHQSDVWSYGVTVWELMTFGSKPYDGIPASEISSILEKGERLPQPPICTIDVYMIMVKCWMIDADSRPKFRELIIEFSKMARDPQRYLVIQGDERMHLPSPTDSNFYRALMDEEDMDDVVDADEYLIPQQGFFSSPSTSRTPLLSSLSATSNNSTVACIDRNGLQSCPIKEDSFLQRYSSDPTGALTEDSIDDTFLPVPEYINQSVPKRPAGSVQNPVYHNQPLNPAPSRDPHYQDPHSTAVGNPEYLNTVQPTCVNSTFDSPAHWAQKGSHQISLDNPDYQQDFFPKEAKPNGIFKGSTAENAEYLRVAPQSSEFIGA

Compound: C=CC(=O)Nc1cccc(Nc2nc(Nc3ccc(OCCOC)cc3)ncc2F)c1 [CC-292, N-(3-((5-fluoro-2-((4-(2-methoxyethoxy)phenyl)amino)pyrimidin-4-yl)amino)phenyl)acrylamide]
EC50 [1]: 121 nM

Compound: Cc1nc(Nc2ncc(C(=O)Nc3c(C)cccc3Cl)s2)cc(N2CCN(CCO)CC2)n1 [Dasatinib]
effect on psoriasis / skin (psoriasis [2]): has not been reported to improve psoriasis

metabolizing CYP (loss of parent drug) (CYP3A4): metabolized by CYP3A4 | oral bioavailability [5]: significant oral bioavailability | inhibition of in vitro EGFR phosphorylation (EGFR): no inhibition
Compound: CC#CC(=O)N1CCC[C@H]1c1nc(-c2ccc(C(=O)Nc3ccccn3)cc2)c2c(N)nccn12 [Formula (II), (S)-4-(8-amino-3-(1-(but-2-ynoyl)pyrrolidin-2-yl)imidazo[1,5-a]pyrazin-1-yl)-N-(pyridin-2-yl)benzamide]
psoriasis skin symptoms, first month of therapy (psoriasis [3]; Subject 1, CLL patient with severe psoriasis (~30% BSA), oral): some improvement | psoriasis, first 6 months of treatment (psoriasis [3]; Subject 1, oral): mostly resolved | skin status by Cycle 10 (10 months) (psoriasis [3]; Subject 1, oral): clear | moderate-to-severe plaque psoriasis after start of treatment (psoriasis [3]; Subject 2, similar clinical study): cleared quickly | in vivo potency at inhibiting expression of activation markers CD69 and CD86 [4]: more potent at inhibiting expression of activation makers than ibrutinib | drug-drug interaction potential through CYP enzymes (CYP enzymes): very unlikely to cause clinical drug-drug interactions | respiratory function [6]: no treatment-related adverse effects | glutathione binding and depletion [7]: binds to glutathione but does not deplete glutathione | metabolic processes in plasma, bile, and urine [8]: oxidation, glutathione binding, and hydrolysis | EC50 [1]: 8.2 nM | unique human metabolite (hepatocytes; hepatocytes of six species): No unique human metabolite was identified | metabolites in hepatocytes (hepatocytes; mouse, rat, dog, rabbit, monkey, human hepatocytes, 14C-labeled drug): two mono-oxidized metabolites and a glutathione conjugate

Compound: C=CC(=O)N1CCC[C@@H](n2nc(-c3ccc(Oc4ccccc4)cc3)c3c(N)ncnc32)C1 [Ibrutinib, 1-[(3R)-3-[4-amino-3-(4-phenoxyphenyl)-1H-pyrazolo[3,4-d]pyrimidin-1-yl]piperidin-1-yl]prop-2-en-1-one]
antitumor activity (hematologic malignancies; subjects with heavily pretreated non-Hodgkin lymphoma): substantial antitumor activity | maximum tolerated dose (MTD) (hematologic malignancies; within the tested dose range (through 840 mg)): No maximum tolerated dose (MTD) was apparent | EC50 [1]: 6.1 nM

Compound: Cc1ccc(C(=O)Nc2ccc(CN3CCN(C)CC3)c(C(F)(F)F)c2)cc1C#Cc1cnc2cccnn12 [Ponatinib]
effect on psoriasis / skin (psoriasis [2]): causes an extreme degree of skin drying and induces an almost psoriasis-like disease

Compound: Cc1ccc(NC(=O)c2ccc(CN3CCN(C)CC3)cc2)cc1Nc1nccc(-c2cccnc2)n1 [imatinib]
effect on psoriasis / skin (psoriasis [2]): may cause worsening of psoriasis

Compound: etanercept
response of psoriasis to earlier therapy (psoriasis [9]): initially responded
